Measurements taken from patent US6525001B1, “Substituted pyrimidine and pyridine herbicides” (Mid-American Commercialization Corporation, priority 1997, dated 2003).

How the values were obtained:
Test in all cases: Test B pre-/postemergence
Format in all cases: in vivo
Design in all cases: key: 0 is no effect; 10 is complete control
[1] = tested on: wheat (Triticum aestivum)
Outline: (§1)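 Response scores run from 0, meaning no effect, to 10, meaning complete control, assigned by eye relative to controls twelve to sixteen days after spraying. Treatment was both preemergence on planted seed and postemergence on plants at the 1- to 4-leaf stage.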

corn (Zea mays) = tested on: corn (Zea mays)
Outline: as §1

[2] = tested on: sugar beet (Beta vulgaris)
Outline: as §1

[3] = tested on: cocklebur (Xanthium strumarium)
Outline: as §1

[4] = tested on: bedstraw (Galium aparine)
Outline: as §1

rape (Brassica napus) = tested on: rape (Brassica napus)
Outline: as §1

soybean (Glycine max) = tested on: soybean (Glycine max)
Outline: as §1

[5] = tested on: velvetleaf (Abutilon theophrasti)
Outline: as §1

[6] = tested on: purple nutsedge (Cyperus rotundus)
Outline: as §1

[7] = tested on: momingglory (Ipomoea hederacea)
Outline: as §1

[8] = tested on: crabgrass (Digitaria sanguinalis)
Outline: as §1

[9] = tested on: pigweed (Amaranthus retroflexus)
Outline: as §1

[10] = tested on: giant foxtail (Setaria faberii)
Outline: as §1

[11] = tested on: broadleaf signalgrass (Brachiaria decumbens)
Outline: as §1

Cc1cnc(-n2ccc(C(F)(F)F)n2)nc1Cn1ccc(C(F)(F)F)n1 [Compound 52]
8: Plant response rating, Wheat ([1]; Rate 500 g/ha, Postemergence) | Plant response rating, Corn (corn (Zea mays); Rate 500 g/ha, Preemergence) | Plant response rating, Cocklebur ([3]; Rate 62 g/ha, Postemergence) | Cocklebur plant response rating ([3]; Rate 125 g/ha, Postemergence) | Plant response rating, Bedstraw ([4]; Rate 125 g/ha, Preemergence) | Plant response rating, Soybean (soybean (Glycine max); Rate 250 g/ha, Preemergence) | Plant response rating, Velvetleaf ([5]; Rate 62 g/ha, Postemergence) | Velvetleaf plant response rating ([5]; Rate 125 g/ha, Postemergence) | Plant response rating, Velvetleaf ([5]; Rate 250 g/ha, Postemergence) | Crabgrass plant response rating ([8]; Rate 125 g/ha, Postemergence) | Giant foxtail plant response rating ([10]; Rate 125 g/ha, Postemergence) | B. signalgrass plant response rating ([11]; Rate 62 g/ha, Preemergence)
1: Cocklebur plant response rating ([3]; Rate 62 g/ha, Preemergence) | Plant response rating, Nutsedge ([6]; Rate 62 g/ha, Postemergence) | Plant response rating, Nutsedge ([6]; Rate 500 g/ha, Preemergence)
0: Nutsedge plant response rating ([6]; Rate 62 g/ha, Preemergence)
10: Sugarbeets plant response rating ([2]; Rate 62 g/ha, Preemergence) | Sugarbeets plant response rating ([2]; Rate 125 g/ha, Postemergence) | Plant response rating, Sugarbeets ([2]; Rate 125 g/ha, Preemergence) | Plant response rating, Sugarbeets ([2]; Rate 250 g/ha, Postemergence) | Plant response rating, Sugarbeets ([2]; Rate 250 g/ha, Preemergence) | Plant response rating, Sugarbeets ([2]; Rate 500 g/ha, Postemergence) | Plant response rating, Sugarbeets ([2]; Rate 500 g/ha, Preemergence) | Plant response rating, Cocklebur ([3]; Rate 500 g/ha, Preemergence) | Bedstraw plant response rating ([4]; Rate 125 g/ha, Postemergence) | Plant response rating, Bedstraw ([4]; Rate 250 g/ha, Postemergence) | Plant response rating, Bedstraw ([4]; Rate 500 g/ha, Postemergence) | Plant response rating, Bedstraw ([4]; Rate 500 g/ha, Preemergence) | Plant response rating, Rape (rape (Brassica napus); Rate 125 g/ha, Preemergence) | Plant response rating, Rape (rape (Brassica napus); Rate 250 g/ha, Preemergence) | Plant response rating, Rape (rape (Brassica napus); Rate 500 g/ha, Postemergence) | Plant response rating, Rape (rape (Brassica napus); Rate 500 g/ha, Preemergence) | Velvetleaf plant response rating ([5]; Rate 62 g/ha, Preemergence) | Plant response rating, Velvetleaf ([5]; Rate 125 g/ha, Preemergence) | Plant response rating, Velvetleaf ([5]; Rate 250 g/ha, Preemergence) | Plant response rating, Velvetleaf ([5]; Rate 500 g/ha, Preemergence) | Plant response rating, Morningglory ([7]; Rate 62 g/ha, Postemergence) | Morningglory plant response rating ([7]; Rate 125 g/ha, Postemergence) | Plant response rating, Morningglory ([7]; Rate 125 g/ha, Preemergence) | Plant response rating, Morningglory ([7]; Rate 250 g/ha, Postemergence) | Plant response rating, Morningglory ([7]; Rate 250 g/ha, Preemergence) | Plant response rating, Morningglory ([7]; Rate 500 g/ha, Postemergence) | Plant response rating, Morningglory ([7]; Rate 500 g/ha, Preemergence) | Plant response rating, Crabgrass ([8]; Rate 125 g/ha, Preemergence) | Plant response rating, Crabgrass ([8]; Rate 250 g/ha, Preemergence) | Plant response rating, Crabgrass ([8]; Rate 500 g/ha, Preemergence) | Redroot pigweed plant response rating ([9]; Rate 62 g/ha, Preemergence) | Redroot pigweed plant response rating ([9]; Rate 125 g/ha, Postemergence) | Plant response rating, Redroot pigweed ([9]; Rate 125 g/ha, Preemergence) | Plant response rating, Redroot pigweed ([9]; Rate 250 g/ha, Postemergence) | Plant response rating, Redroot pigweed ([9]; Rate 250 g/ha, Preemergence) | Plant response rating, Redroot pigweed ([9]; Rate 500 g/ha, Postemergence) | Plant response rating, Redroot pigweed ([9]; Rate 500 g/ha, Preemergence) | Plant response rating, Giant foxtail ([10]; Rate 250 g/ha, Preemergence) | Plant response rating, Giant foxtail ([10]; Rate 500 g/ha, Preemergence) | Plant response rating, B. signalgrass ([11]; Rate 250 g/ha, Preemergence) | Plant response rating, B. signalgrass ([11]; Rate 500 g/ha, Preemergence)
5: Corn plant response rating (corn (Zea mays); Rate 125 g/ha, Postemergence)
7: Wheat plant response rating ([1]; Rate 125 g/ha, Postemergence) | Plant response rating, Wheat ([1]; Rate 250 g/ha, Postemergence) | Plant response rating, Corn (corn (Zea mays); Rate 250 g/ha, Preemergence) | Plant response rating, Corn (corn (Zea mays); Rate 500 g/ha, Postemergence) | Plant response rating, Cocklebur ([3]; Rate 250 g/ha, Preemergence) | Bedstraw plant response rating ([4]; Rate 62 g/ha, Preemergence) | Plant response rating, Soybean (soybean (Glycine max); Rate 125 g/ha, Preemergence) | Plant response rating, Nutsedge ([6]; Rate 500 g/ha, Postemergence) | Plant response rating, Giant foxtail ([10]; Rate 62 g/ha, Postemergence)
4: Wheat plant response rating ([1]; Rate 62 g/ha, Postemergence) | Plant response rating, Corn (corn (Zea mays); Rate 62 g/ha, Postemergence) | Soybean plant response rating (soybean (Glycine max); Rate 62 g/ha, Preemergence) | Plant response rating, B. signalgrass ([11]; Rate 62 g/ha, Postemergence)
6: Plant response rating, Wheat ([1]; Rate 500 g/ha, Preemergence) | Plant response rating, Corn (corn (Zea mays); Rate 250 g/ha, Postemergence) | Plant response rating, Crabgrass ([8]; Rate 62 g/ha, Postemergence)
9: Plant response rating, Sugarbeets ([2]; Rate 62 g/ha, Postemergence) | Plant response rating, Cocklebur ([3]; Rate 250 g/ha, Postemergence) | Plant response rating, Cocklebur ([3]; Rate 500 g/ha, Postemergence) | Plant response rating, Bedstraw ([4]; Rate 62 g/ha, Postemergence) | Plant response rating, Bedstraw ([4]; Rate 250 g/ha, Preemergence) | Plant response rating, Rape (rape (Brassica napus); Rate 62 g/ha, Postemergence) | Rape plant response rating (rape (Brassica napus); Rate 62 g/ha, Preemergence) | Rape plant response rating (rape (Brassica napus); Rate 125 g/ha, Postemergence) | Plant response rating, Rape (rape (Brassica napus); Rate 250 g/ha, Postemergence) | Plant response rating, Soybean (soybean (Glycine max); Rate 62 g/ha, Postemergence) | Soybean plant response rating (soybean (Glycine max); Rate 125 g/ha, Postemergence) | Plant response rating, Soybean (soybean (Glycine max); Rate 250 g/ha, Postemergence) | Plant response rating, Soybean (soybean (Glycine max); Rate 500 g/ha, Postemergence) | Plant response rating, Soybean (soybean (Glycine max); Rate 500 g/ha, Preemergence) | Plant response rating, Velvetleaf ([5]; Rate 500 g/ha, Postemergence) | Morningglory plant response rating ([7]; Rate 62 g/ha, Preemergence) | Crabgrass plant response rating ([8]; Rate 62 g/ha, Preemergence) | Plant response rating, Crabgrass ([8]; Rate 250 g/ha, Postemergence) | Plant response rating, Crabgrass ([8]; Rate 500 g/ha, Postemergence) | Plant response rating, Redroot pigweed ([9]; Rate 62 g/ha, Postemergence) | Giant foxtail plant response rating ([10]; Rate 62 g/ha, Preemergence) | Plant response rating, Giant foxtail ([10]; Rate 125 g/ha, Preemergence) | Plant response rating, Giant foxtail ([10]; Rate 250 g/ha, Postemergence) | Plant response rating, Giant foxtail ([10]; Rate 500 g/ha, Postemergence) | B. signalgrass plant response rating ([11]; Rate 125 g/ha, Postemergence) | Plant response rating, B. signalgrass ([11]; Rate 125 g/ha, Preemergence) | Plant response rating, B. signalgrass ([11]; Rate 250 g/ha, Postemergence) | Plant response rating, B. signalgrass ([11]; Rate 500 g/ha, Postemergence)
3: Plant response rating, Wheat ([1]; Rate 250 g/ha, Preemergence) | Corn plant response rating (corn (Zea mays); Rate 62 g/ha, Preemergence) | Plant response rating, Corn (corn (Zea mays); Rate 125 g/ha, Preemergence) | Nutsedge plant response rating ([6]; Rate 125 g/ha, Postemergence)
2: Wheat plant response rating ([1]; Rate 62 g/ha, Preemergence) | Plant response rating, Wheat ([1]; Rate 125 g/ha, Preemergence)
